# Results published in US9366677B2, “Methods for analyzing biological macromolecular complexes and use thereof” (Max-Planck-Gesellshaft zur Foerderung der Wissenschaften …, priority 2011, dated 2016).
# “Also recorded” adds a separate entry of the source.
# Target: GroEL/GroES (Escherichia coli, UniProt P0A6F5)
# Assay: Thermofluor (DSF) unfolding of equimolar GroEL/GroES with adenine nucleotides
# Type: binding
# Conditions: in the presence of the nucleotide
# Excerpt: In a next proof of principle for the validity of the method according to the present invention, it has been determined whether thermal unfolding was suitable to find small molecules, which stabilize molecular machines similarly as has been documented for single-domain proteins (Ericsson et al. 2006, Analytical Biochemistry, 357:289-298). For this the GroEL/GroES (homo-tetradecameric 800 kDa and homo-heptameric 70 kDa, respectively) chaperonin system has been analysed. Two important properties of the chaperonin system have been well documented in the literature (Sigler et al., 1998, Annual Reviews in Biochemistry, 67:581-608; Tang et al., 2006, Cell, 125:908-914). First, GroEL forms a double heptameric ring structure, which exposes hydrophobic residues on one face, where non-native substrate protein can bind. Second, the binding of adenine-nucleotides to GroEL induces a conformational change, which causes the previously exposed hydrophobic residues to be buried and is essential for GroES binding to one face of the GroEL double ring. Therefore, measurements according to the present invention of an equimolar GroEL/GroES should yield a high initial fluorescence owing to the solvent-exposed hydrophobic residues, which gradually decreases upon temperature ramping. […]
# Sequence of GroEL/GroES (P0A6F9 whole entry): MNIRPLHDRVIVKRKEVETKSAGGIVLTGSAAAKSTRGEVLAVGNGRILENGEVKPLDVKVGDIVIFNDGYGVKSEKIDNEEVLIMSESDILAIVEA
# Sequence of GroEL/GroES (P0A6F5 2-548): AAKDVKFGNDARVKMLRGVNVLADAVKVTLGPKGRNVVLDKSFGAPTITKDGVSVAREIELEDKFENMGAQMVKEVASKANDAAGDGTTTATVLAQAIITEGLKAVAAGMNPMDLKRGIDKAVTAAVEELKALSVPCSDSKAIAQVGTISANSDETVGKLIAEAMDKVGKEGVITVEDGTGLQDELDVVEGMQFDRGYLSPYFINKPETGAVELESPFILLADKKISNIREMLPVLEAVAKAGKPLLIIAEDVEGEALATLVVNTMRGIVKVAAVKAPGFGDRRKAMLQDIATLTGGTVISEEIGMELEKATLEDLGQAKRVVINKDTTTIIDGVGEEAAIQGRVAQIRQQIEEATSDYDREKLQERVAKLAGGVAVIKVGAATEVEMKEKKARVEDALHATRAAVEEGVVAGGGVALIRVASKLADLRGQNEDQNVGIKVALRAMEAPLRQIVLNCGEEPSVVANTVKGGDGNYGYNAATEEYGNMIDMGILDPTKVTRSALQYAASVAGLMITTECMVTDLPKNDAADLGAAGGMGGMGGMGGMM
row,SMILES,unfolding transition of GroEL/GroES (complex formation)
1,Nc1ncnc2c1ncn2[C@@H]1O[C@H](COP(=O)(O)OP(=O)(O)OP(=O)(O)O)[C@@H](O)[C@H]1O [ATP],complexes are formed; also recorded: single—apparent two-state—unfolding transition
2,Nc1ncnc2c1ncn2[C@H]1C[C@H](O)[C@@H](COP(=O)(O)OP(=O)(O)OP(=O)(O)O)O1 [dATP],complexes are formed; also recorded: single—apparent two-state—unfolding transition
